Test results taken from paper PMC5756575, “In Vitro Biotransformation, Safety, and Chemopreventive Action of Novel 8-Methoxy-Purine-2,6-Dione Derivatives” (Applied Biochemistry and Biotechnology, 2017).

How the values were obtained:
rat liver microsomes = test: Microsomal stability assay; format: in vitro ADME; settings: rat microsomal biotransformation after 30 min of incubation
Experimental: Compounds 1 and 3 were studied in a biotransformation assay using rat liver microsomes following procedures described previously. The reagents used in this assay were levallorphan (internal standard) and NADPH-regenerating system, which contained phosphate buffer (pH 7.4), NADP^+, glucose-6-phosphate, and glucose-6-phosphate dehydrogenase. The final protein concentration in the assay was 0.4 mg/mL. Compounds 1 and 3 were tested at a final concentration of 20 μM.
The amount of a parental compound remaining in a solution after biotransformation was monitored using LC-MS/MS as described previously in “Cunninghamella Biotransformation Assay.” Graphs representing ln of percentage of parent compound remaining versus incubation time were drawn to calculate in vitro half-time (t1/2) from the slope of linear regression. To obtain intrinsic clearance (Clint) of a tested compound in rat liver microsomal assay, t1/2 previously calculated was substituted at the equation Clint = [(Vmic/Pmic) × 0.693/t1/2], being Vmic and Pmic the volume of incubation in microliters and the amount of incubated protein in milligrams, respectively.
(§1) Agilent 1100 HPLC system (Agilent Technologies, Waldbronn, Germany) equipped with a Xbridge™ C18 analytical column (2.1 × 30 mm, […]; Waters, Dublin, Ireland) was used in the chromatographic separation of LC-MS/MS analysis. An elution gradient of acetonitrile and water, with 0.1% of formic acid, was used as a mobile phase. MS spectra were taken at Applied Biosystems MDS Sciex API 200 triple quadrupole mass analyzer (Concord, Ontario, Canada) with an electrospray ionization (ESI) interface between HPLC and MS.

[1] = tested on: Cunninghamella echinulata NRRL 1384; test: Cunninghamella biotransformation assay, C. echinulata; format: in vitro ADME; settings: 0.5 mg/mL, 7-day incubation, LC-MS/MS
Experimental: Three different strains of Cunninghamella were used: Cunninghamella echinulata NRRL 1384, Cunninghamella blakesleeana 1908 DMS, and Cunninghamella elegans 1906 DMS. The first was provided by Dr. A.J. Carnell (University of Liverpool, UK), whereas the two remaining were purchased from Deutsche Sammlung von Mikroorganismen und Zellkulturen GmbH (DMSZ, Braunschweig, Germany).
Cunninghamella strains were cultivated on solid potato dextrose agar (PDA) plates at 28 °C. After 4 days, a liquid fermentation basal medium was prepared by the addition of 6 g of D-glucose, 1.5 g of NaCl, 1.5 g of yeast extract from Saccharomyces cerevisiae, and 1.5 g of K2HPO4 to 300 mL of distilled water. Aliquots of 24.5 mL of medium were inoculated with 300 μL of suspension of fungal spores obtained after wetting colonies in PDA. The fungi were incubated with shaking until the formation of spherical clumps.
Compounds 2–4 were evaluated in this experiment. Once microorganisms formed spherical clumps in the preliminary incubation, the corresponding tested compound was added to the broth and the mixture was incubated for 7 days. Two control experiments were also performed, in the absence of compound and fungus, respectively. Biotransformation progress was monitored by TLC and by liquid chromatography electrospray ionization-tandem mass spectrometry (LC-MS/MS). Monitoring was performed at four different incubation times: 30 min, 3 days, 5 days, and 7 days.
To analyze metabolites in LC-MS/MS, an aliquot of 500 μL of filtered sample was taken and extracted with 500 μL of dichloromethane. The organic fraction was dried with sodium sulfate, filtered, and evaporated. The obtained residue was analyzed in LC-MS/MS. At the end of experiment, all the remaining medium was extracted with 25 mL of dichloromethane after separating the fungal clumps by filtration over cellulose filters.
as §1

Row | SMILES | % content among metabolites (rat liver microsomes) [%] | % of compound/metabolite in C. echinulata [1] [%]
1 | COc1nc2c(c(=O)n(C)c(=O)n2C)n1CCCC(N)=O [3-M1] | 100 | 1.5
2 | COc1nc2c(c(=O)n(C)c(=O)n2C)n1CCCC(=O)NCc1ccccc1O [3-M2] | – | 1.6
3 | COc1nc2c(c(=O)n(C)c(=O)n2C)n1CCCC(=O)NCc1cccc(O)c1 [3-M3] | – | 0.3
